One block for each compound: values may come before it.
How the values were obtained:
[1] = test system: intraocular pressure of normotensive Dutch-Belted male rabbits; assay: Intraocular pressure lowering after a single topical eye drop in normotensive rabbits; type: in vivo, rabbit; settings: for time for which the decrease in intraocular pressure is maintained: single 50 μl drop, treated eye; for sedation, ocular irritation, and changes in pupil diameter: single topical drop, observed throughout the experiment
Protocol: The free base of 4-bromo-N-imidazolidin-2-ylidene-1-H-benzimidazol-5-amine was dissolved in sterile distilled water, hydrochloric acid was added and the hydrochloric salt of the compound was formed in situ. The solution was titrated with sodium hydroxide until the pH of the solution reached 8.0. […] The experimental animals used were normotensive Dutch-Belted male rabbits. A single drop (50 μl) of the drug formulation was administered topically by pipette onto the right eye (treated eye) at approximately 07:00 AM hours. The intraocular pressure of the rabbits (treated and untreated eyes) was measured 0 hours before and at 0.5, 1, 2, 3, 4, 6 and 8 hours after topical eye drop single administration. The intraocular pressure taken before the eye drop administration (0 hours) was used as a baseline value. Prior to the tonometric measurements, 0.05% proparacaine (50 μl) was administered to each eye. Tonometric intraocular pressure measurements were obtained with a Mentor Pneumotonometer. Additionally, all studies were masked. All animals were examined for sedation, ocular irritation, and changes in pupil diameter throughout the course of the experiments.
The free base of 4-bromo-N-imidazolidin-2-ylidene-1-H-benzimidazol-5-amine was dissolved in sterile distilled water, hydrochloric acid was added and the hydrochloric salt of the compound was formed in situ. The solution was titrated with sodium hydroxide until the pH of the solution reached 8.0. The final concentration of 4-bromo-N-imidazolidin-2-ylidene-1-H-benzimidazol-5-amine is 0.2% by weight. The experimental animals used were normotensive Dutch-Belted male rabbits. A single drop (50 μl) of the drug formulation was administered topically by pipette onto the right eye (treated eye) at approximately 07:00 AM hours. The intraocular pressure of the rabbits (treated and untreated eyes) was measured 0 hours before and at 2, 4 and 6 hours after topical eye drop single administration. The intraocular pressure taken before the eye drop administration (0 hours) was used as a baseline value. Prior to the tonometric measurements, 0.05% proparacaine (50 μl) was administered to each eye. Tonometric intraocular pressure measurements were obtained with a Mentor Pneumotonmeter. Additionally, all studies were masked. All animals were examined for sedation, ocular irritation, and changes in pupil diameter throughout the course of the experiments.

[2] = Pharmacokinetic analysis of ocular tissues and plasma after topical dosing in rabbits; type: in vivo, rabbit
Protocol: Twenty-three Dutch Belted female rabbits (group 1) weighing approximately 1.75-2.34 kg were dosed with 35 μL of the formulation to the left eye. At different time points, prior to euthanasia, approximately 0.5 mL of blood was collected via central ear artery and placed in EDTA tubes. Blood samples were kept on ice during the duration of sample collection and centrifuged to harvest plasma. Animals were euthanized with 1 mL of Euthasol intravenously and the ocular tissues (aqueous humor, cornea, conjunctiva, iris-ciliary body, retina, and sclera) were collected from left and right eyes. All ocular tissues samples were placed in vials and kept on dry ice during the duration of sample collection. Ocular tissues were also collected from the control group (group 2) which received no dose. These ocular tissues served as analytical control. All ocular tissue and plasma samples were stored at or below −60° C. until bioanalysis.
(Acheampong et al. (Drug Metabolism and Disposition, Vol 23, No. 7, p 708-712).

[3] = cited from earlier work; for clearance from the aqueous humor / passage through cornea and sclera: following topical dosing
[4] = stated as found earlier; cited from earlier work
[5] = Corneal penetration assay
[6] = test system: corneal epithelial cells; assay: Corneal penetration assay
[7] = test system: intraocular pressure of hypertensive monkeys; assay: Intraocular pressure lowering in hypertensive monkeys; type: in vivo, monkey; settings: composition of Example 1 (FIG. 4 legend: 0.5% solution), compared to placebo
[8] = Iris-ciliary body accumulation and melanin binding (pharmacokinetic data); settings: unpublished pharmacokinetic data
[9] = rats, after oral dose of brimonidine tartrate; Acheampong et al. 2007; cited from earlier work

time in which levels in the aqueous humor are substantially decreased ([2]; 0.15% brimonidine, similar study done previously, FIG. 3A): 3 h
Papp [5]: 8.57 ± 0.64 ×10⁻⁶ cm/s
penetration of corneal epithelial cells (in words) [6]: moderate penetrator
Structure (SMILES): Brc1c(NC2=NCCN2)ccc2nccnc12 [Brimonidine, (5-bromo-quinoxalin-6-yl)-imidazolidin-2-ylidene-amine]
time in which intraocular pressure returns to baseline ([1]; brimonidine containing composition (0.15% solution per FIG. 1 legend), topical): < 6 h
clearance from the aqueous humor [3]: rapidly cleared
passage through cornea and sclera [3]: readily pass through the cornea and sclera
time in which the level decreases in aqueous humor ([3]; regardless of the dose, Acheampong et al.): three
accumulation in the iris-ciliary body [4]: accumulate in the iris-ciliary body
binding to the pigment melanin [4]: high binding

Structure (SMILES): Brc1c(N=C2NCCN2)ccc2[nH]cnc12 [4-bromo-N-imidazolidin-2-ylidene-1-H-benzimidazol-5-amine]
time for which the decrease in intraocular pressure is maintained ([1]; 0.2% by weight solution, topical, FIG. 2): > 6 h
sedation, ocular irritation, and changes in pupil diameter ([1]; 0.2% by weight solution): None of these effects were observed
time for which the decrease in intraocular pressure is maintained ([1]; 1% by weight solution, topical, FIG. 1): > 8 h
sedation, ocular irritation, and changes in pupil diameter ([1]; 1% by weight solution): None of these effects were observed
time for which sustained levels remain in the aqueous humor ([2]; 35 μL topical to left eye, Dutch Belted female rabbits, FIG. 3A): over 8 hours
time for which the level is maintained in several ocular tissues ([2]; 35 μL topical to left eye, FIG. 3B): over 8 hrs
plasma level ([2]; after topical ocular dosing): low and below detectable level
time for which the decrease in intraocular pressure is maintained [7]: up to 24 hours
accumulation at the iris-ciliary body [8]: very little accumulation
melanin binding [8]: no sign of melanin binding
amount found in urine [9]: trace amounts
Papp [5]: 0.119 ± 0.01 ×10⁻⁶ cm/s
penetration of corneal epithelial cells (in words) [6]: poorly

Structure (SMILES): OC[C@@H](O)[C@@H](O)[C@H](O)[C@H](O)CO [Compound 3H-mannitol, 3H-mannitol]
Papp (×10^−6 cm/s) ([6]; permeability coefficient, corneal epithelial cells): 0.512 ± 0.069 ×10^−6 cm/s

Structure (SMILES): Nc1cc(Cl)c(N=C2NCCN2)c(Cl)c1 [apraclonidine, 2,6-dichloro-N-imidazolidin-2-ylidene-benzene-1,4-diamine]
clearance from the aqueous humor [3]: rapidly cleared
passage through cornea and sclera [3]: readily pass through the cornea and sclera
accumulation in the iris-ciliary body [4]: accumulate in the iris-ciliary body
binding to the pigment melanin [4]: high binding
